Data: article PMC6399351, “Cationic Intrinsically Disordered Antimicrobial Peptides (CIDAMPs) Represent a New Paradigm of Innate Defense with a Potential for Novel Anti-Infectives” (Scientific Reports, 2019)
Peptide text beside a SMILES is read from it. * marks the point of attachment. Palmitoyl = CCCCCCCCCCCCCCCC(=O)*

Test system: S. aureus ATCC 6538
Settings: CFU assay, 10 mM NaP, pH 5.5, 0.25% glucose

Compound: CCCCCCCCCCCCCCCC(=O)SC[C@H](N)C(=O)NCC(=O)N[C@@H](CCC(N)=O)C(=O)N[C@@H](Cc1c[nH]cn1)C(=O)NCC(=O)N[C@@H](C)C(=O)N[C@H](C(=O)N[C@@H](CO)C(=O)NCC(=O)N[C@@H](CCC(N)=O)C(=O)N[C@@H](CO)C(=O)N[C@@H](CO)C(=O)N[C@@H](CO)C(=O)N[C@@H](Cc1c[nH]cn1)C(=O)NCC(=O)N[C@@H](CCC(N)=O)C(=O)N[C@@H](Cc1c[nH]cn1)C(=O)NCC(=O)N[C@@H](CO)C(=O)NCC(=O)N[C@@H](CO)C(=O)N[C@@H](CO)C(=O)N[C@@H](CCC(N)=O)C(=O)N[C@@H](CO)C(=O)N[C@@H](CO)C(=O)N[C@@H](CCCNC(=N)N)C(=O)O)[C@@H](C)O [S-Pal-HRNR623–648] (H-C(Palmitoyl)GQHGATSGQSSSHGQHGSGSSQSSR-OH; N-terminus and C-terminus assumed)
- LD90: 2.35 µg/mL
- LD100: > 150 µg/mL

Compound: CCCCCCCCCCCCCCCC(=O)SC[C@H](N)C(=O)NCC(=O)N[C@@H](CCC(N)=O)C(=O)N[C@@H](Cc1c[nH]cn1)C(=O)NCC(=O)N[C@@H](C)C(=O)N[C@H](C(=O)N[C@@H](CO)C(=O)N[C@@H](CO)C(=O)NCC(=O)N[C@@H](CCC(N)=O)C(=O)N[C@@H](CO)C(=O)N[C@@H](CO)C(=O)N[C@@H](CO)C(=O)N[C@@H](Cc1c[nH]cn1)C(=O)NCC(=O)N[C@@H](CCC(N)=O)C(=O)N[C@@H](Cc1c[nH]cn1)C(=O)NCC(=O)N[C@@H](CO)C(=O)NCC(=O)N[C@@H](CO)C(=O)N[C@@H](CO)C(=O)N[C@@H](CCC(N)=O)C(=O)N[C@@H](CO)C(=O)N[C@@H](CO)C(=O)NCC(=O)N[C@@H](Cc1ccc(O)cc1)C(=O)NCC(=O)N[C@@H](CCCNC(=N)N)C(=O)O)[C@@H](C)O [S-Pal-HRNR1089–1117] (H-C(Palmitoyl)GQHGATSSGQSSSHGQHGSGSSQSSGYGR-OH; N-terminus and C-terminus assumed)
- LD100: > 150 µg/mL

Compound: CCCCCCCCCCCCCCCC(=O)SC[C@H](NC(=O)CNC(=O)[C@H](CO)NC(=O)[C@H](CO)NC(=O)[C@H](CCC(N)=O)NC(=O)[C@H](Cc1c[nH]c2ccccc12)NC(=O)[C@H](CO)NC(=O)[C@H](CO)NC(=O)[C@H](CO)NC(=O)[C@H](CCC(=O)O)NC(=O)[C@H](Cc1c[nH]cn1)NC(=O)[C@H](Cc1c[nH]cn1)NC(=O)CNC(=O)[C@H](Cc1ccccc1)NC(=O)CNC(=O)[C@H](CO)NC(=O)[C@H](CO)NC(=O)[C@H](CCC(N)=O)NC(=O)CNC(=O)[C@H](CO)NC(=O)CNC(=O)[C@H](CO)NC(=O)CNC(=O)[C@H](Cc1c[nH]cn1)NC(=O)[C@H](CCCNC(=N)N)NC(=O)CN)C(N)=O [S-Pal-HRNR1389–1414] (H-GRHGSGSGQSSGFGHHESSSWQSSGC(Palmitoyl)-NH2; N-terminus assumed)
- LD90: 1.18 µg/mL
- LD100: 18.8 µg/mL

Compound: CCCCCCCCCCCCCCCC(=O)SC[C@H](NC(=O)[C@H](Cc1ccccc1)NC(=O)[C@H](Cc1c[nH]cn1)NC(=O)CNC(=O)[C@H](CO)NC(=O)CNC(=O)[C@H](CO)NC(=O)CNC(=O)[C@H](Cc1c[nH]cn1)NC(=O)[C@H](CCC(N)=O)NC(=O)[C@H](CO)NC(=O)[C@H](Cc1ccc(O)cc1)NC(=O)[C@H](C)NC(=O)[C@H](CO)NC(=O)[C@H](CO)NC(=O)[C@H](Cc1c[nH]cn1)NC(=O)CNC(=O)[C@H](CO)NC(=O)CNC(=O)[C@H](CO)NC(=O)[C@H](CCC(=O)O)NC(=O)[C@H](Cc1c[nH]cn1)NC(=O)[C@H](CCC(N)=O)NC(=O)CNC(=O)[C@H](Cc1ccccc1)NC(=O)[C@@H](NC(=O)[C@H](CO)NC(=O)[C@H](CO)NC(=O)[C@H](Cc1c[nH]cn1)NC(=O)CNC(=O)[C@@H](N)CO)C(C)C)C(N)=O [S-Pal-HRNR1748–1778] (H-SGHSSVFGQHESGSGHSSAYSQHGSGSGHFC(Palmitoyl)-NH2; N-terminus assumed)
- LD90: 0.3 µg/mL
- LD100: 9.38 µg/mL
